How the values were obtained:
EGFR T790M/L858R = target: T1, EGFR T790M/L858R (Homo sapiens, UniProt P00533, L858R/T790M); test: EGFR enzyme inhibitory activity evaluation (Z'-LYTE kinase assay), T790M/L858R; type: biochemical
T1 construct: purchased Thermo Fisher Scientific Inc
Protocol: (§1) For this, a Z′-LYTE kinase assay kit (ThermoFisher Scientific, PV3191) was used, and the kinases used were purchased from Thermo Fisher Scientific Inc. A simple test method is summarized as follows.
(§2) Each kinase was diluted to a concentration of 7-45 ng/assay using a kinase buffer (50 mM HEPES (pH 7.5), 10 mM MgCl2, 4 mM MnCl2, 2 mM DTT, 1 mM EGTA, 0.01% BRIJ-35, or 50 mM HEPES (pH 6.5), 10 mM MgCl2, 1 mM EGTA, 0.01% BRIJ-35, 0.02% NaN3). The test was performed on 384 well plates (well polystyrene flat-bottomed plates). First, after 5 μl of a diluted compound solution was added, a protein substrate at a concentration as specified in the kit, 10 μl of a kinase mixed solution, and 5 μl of a 10-100 μM ATP solution were added to the sample and reacted at room temperature for 60 minutes in a stirrer. Thereafter, 10 μl of a coloring solution was added each to cause a fluorescence reaction of the peptide substrate for 60 minutes, and 10 μl of a stopping solution was added each to terminate the reaction.

[1] = tested on: Ba/F3 EGFR del19/T790M/C797S cells; test: Ba/F3 EGFR del19/T790M/C797S cell growth inhibition test (CellTiter-Glo, 72 hours); type: cell-based; conditions: Ba/F3 cell line overexpressing EGFR del19/T790M/C797S, 72 hours, CellTiter-Glo; read-out: Ba/F3 EGFR del19/T790M/C797S cells, GI50;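 note: compounds tested in tenfold steps from 10 µM down to 0.1 nM, with luminescence read on a microplate reader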
Protocol: Specifically, the cell line stored in a liquid nitrogen tank was taken out, rapidly dissolved at 37° C., and thereafter centrifuged to remove the cryopreservation medium. The recovered cell pellets were well mixed in a culture medium, put into a culture flask, and passaged under conditions of 37° C. and 5% carbon dioxide to stabilize the cells to the logarithmic growth phase. Thereafter, cells were taken from the flask, centrifuged to remove the culture medium, washed with Dulbecco's phosphate buffered saline (DPBS), and then centrifuged again to remove DPBS, and then diluted with a culture medium to have 1×10^5 cells/ml. The diluted cells were dispensed into a 96-well plate at 100 μl per well. […] The DMSO solution containing each compound was diluted with a culture medium to a concentration of 30 μM, and then tenfold serial dilution was used to prepare a solution diluted upto 0.3 nM (in order to reach a final DMSO concentration of 1% or less).
50 μl of a test solution of each compound was added each time to the 96-well plate in which the cells were dispensed, thus reaching a final concentration of 10 μM to 0.1 nM in 150 μl per well. The cells treated with the test solution were cultured under conditions of 37° C. and 5% carbon dioxide for 72 hours. After the 96-well plate in which the cells were cultured was acclimated to room temperature for 30 minutes, CellTiter-Glo® Luminescent Cell Assay Reagent (CTG, Promega) was dispensed at 50 μl per well. After stabilizing luminescence signals for 10 minutes, the luminescence intensity was measured with a microplate reader.

EGFR L858R/T790M/C797S = target: T2, EGFR L858R/T790M/C797S (Homo sapiens, UniProt P00533, C797S/L858R/T790M); test: EGFR enzyme inhibitory activity evaluation (Z'-LYTE kinase assay), L858R/T790M/C797S; type: biochemical
T2 construct: purchased Thermo Fisher Scientific Inc
T2 sequence (P00533 25-1210 T790M/C797S/L858R): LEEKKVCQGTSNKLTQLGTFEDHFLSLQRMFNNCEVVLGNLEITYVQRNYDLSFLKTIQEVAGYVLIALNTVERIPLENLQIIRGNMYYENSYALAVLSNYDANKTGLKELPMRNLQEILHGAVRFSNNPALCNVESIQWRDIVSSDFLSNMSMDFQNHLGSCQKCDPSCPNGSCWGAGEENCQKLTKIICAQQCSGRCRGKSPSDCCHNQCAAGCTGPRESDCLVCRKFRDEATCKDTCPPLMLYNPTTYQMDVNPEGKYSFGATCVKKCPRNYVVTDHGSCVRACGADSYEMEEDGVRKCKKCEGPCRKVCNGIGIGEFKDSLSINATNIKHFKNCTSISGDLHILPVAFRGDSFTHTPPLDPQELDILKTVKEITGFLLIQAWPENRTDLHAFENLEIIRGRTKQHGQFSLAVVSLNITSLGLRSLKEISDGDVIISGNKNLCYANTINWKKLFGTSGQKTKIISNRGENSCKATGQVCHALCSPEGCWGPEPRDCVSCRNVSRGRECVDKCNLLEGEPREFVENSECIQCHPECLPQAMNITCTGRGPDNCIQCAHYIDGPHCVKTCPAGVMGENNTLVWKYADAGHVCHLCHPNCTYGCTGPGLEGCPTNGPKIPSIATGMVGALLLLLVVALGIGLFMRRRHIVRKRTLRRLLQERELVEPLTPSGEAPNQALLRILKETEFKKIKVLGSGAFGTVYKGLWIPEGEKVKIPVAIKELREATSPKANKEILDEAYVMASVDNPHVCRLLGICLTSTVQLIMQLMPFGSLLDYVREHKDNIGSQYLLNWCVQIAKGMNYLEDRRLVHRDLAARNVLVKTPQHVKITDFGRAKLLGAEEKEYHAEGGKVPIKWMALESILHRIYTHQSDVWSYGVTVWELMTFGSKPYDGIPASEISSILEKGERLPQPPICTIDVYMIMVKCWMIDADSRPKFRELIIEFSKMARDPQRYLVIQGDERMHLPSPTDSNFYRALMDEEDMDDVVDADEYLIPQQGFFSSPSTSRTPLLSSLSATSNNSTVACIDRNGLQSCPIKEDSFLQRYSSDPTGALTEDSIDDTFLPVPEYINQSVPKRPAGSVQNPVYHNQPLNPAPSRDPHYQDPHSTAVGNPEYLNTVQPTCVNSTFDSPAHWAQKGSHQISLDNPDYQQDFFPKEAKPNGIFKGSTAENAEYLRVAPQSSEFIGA
Protocol: as §1, §2

EGFR WT = target: T3, EGFR WT (Homo sapiens, UniProt P00533); test: EGFR enzyme inhibitory activity evaluation (Z'-LYTE kinase assay), WT; type: biochemical
T3 construct: purchased Thermo Fisher Scientific Inc
T3 sequence (P00533 25-1210): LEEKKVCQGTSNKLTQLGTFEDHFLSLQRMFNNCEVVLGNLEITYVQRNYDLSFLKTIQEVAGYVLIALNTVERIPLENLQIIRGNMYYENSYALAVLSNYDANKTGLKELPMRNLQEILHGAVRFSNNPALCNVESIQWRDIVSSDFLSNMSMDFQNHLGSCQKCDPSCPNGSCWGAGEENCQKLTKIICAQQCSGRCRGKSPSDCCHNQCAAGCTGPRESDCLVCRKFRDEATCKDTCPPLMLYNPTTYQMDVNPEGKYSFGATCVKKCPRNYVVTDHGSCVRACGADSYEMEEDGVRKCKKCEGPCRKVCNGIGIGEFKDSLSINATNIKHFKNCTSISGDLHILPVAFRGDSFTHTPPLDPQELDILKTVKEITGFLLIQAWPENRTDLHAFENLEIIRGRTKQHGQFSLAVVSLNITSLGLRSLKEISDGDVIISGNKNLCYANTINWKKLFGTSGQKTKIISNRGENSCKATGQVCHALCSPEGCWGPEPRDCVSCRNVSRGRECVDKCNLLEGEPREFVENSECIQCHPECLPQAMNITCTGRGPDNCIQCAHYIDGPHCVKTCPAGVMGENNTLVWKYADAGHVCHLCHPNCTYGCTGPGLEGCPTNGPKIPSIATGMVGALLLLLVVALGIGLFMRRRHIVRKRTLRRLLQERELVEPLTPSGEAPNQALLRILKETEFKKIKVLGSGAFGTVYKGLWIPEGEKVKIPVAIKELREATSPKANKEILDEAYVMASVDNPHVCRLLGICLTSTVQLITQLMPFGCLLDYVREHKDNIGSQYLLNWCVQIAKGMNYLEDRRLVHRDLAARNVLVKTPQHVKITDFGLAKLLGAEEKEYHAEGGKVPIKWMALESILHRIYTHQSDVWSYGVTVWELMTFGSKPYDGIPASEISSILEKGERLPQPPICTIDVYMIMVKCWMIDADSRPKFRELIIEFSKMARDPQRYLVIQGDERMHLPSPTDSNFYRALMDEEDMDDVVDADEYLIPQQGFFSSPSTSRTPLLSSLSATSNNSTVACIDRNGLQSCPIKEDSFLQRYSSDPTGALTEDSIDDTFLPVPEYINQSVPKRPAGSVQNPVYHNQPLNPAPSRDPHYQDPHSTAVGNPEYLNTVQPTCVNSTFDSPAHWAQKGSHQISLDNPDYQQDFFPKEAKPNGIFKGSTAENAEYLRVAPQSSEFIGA
Protocol: as §1, §2

[2] = tested on: PC9 EGFR del19/T790M/C797S cells; test: PC9 EGFR del19/T790M/C797S cell growth inhibition test (CellTiter-Glo, 72 hours); type: cell-based; conditions: Homo sapiens, PC-9, PC9 cell line overexpressing EGFR del19/T790M/C797S
Protocol: For cell growth conditions, an RPMI Medium 1640 (1×) containing 10% FBS and 1% penicillin/straptomycin (Gibco BRL) was used.
Specifically, the cell line stored in a liquid nitrogen tank was taken out, rapidly dissolved at 37° C., and thereafter centrifuged to remove the cryopreservation medium. The recovered cell pellets were well mixed in a culture medium, put into a culture flask, and passaged under conditions of 37° C. and 5% carbon dioxide to stabilize the cells to logarithmic cell growth phase. Thereafter, cells were taken from the flask, centrifuged to remove the culture medium, washed with Dulbecco's phosphate buffered saline (DPBS), and then centrifuged again to remove DPBS, and then diluted with a culture medium to have 1×10^5 cells/ml. The diluted cells were dispensed into a 96-well plate at 100 μl per well. The compounds prepared in the above examples were each dissolved in 99.5% dimethylsulfoxide (hereinafter, DMSO, cell culture grade) to a concentration of 10 mM. The DMSO solution containing each compound was diluted with a culture medium to a concentration of 30 μM, and then tenfold serial dilution was used to prepare a solution diluted upto 0.3 nM (in order to reach a final DMSO concentration of 1% or less).
The cells treated with the test solution were cultured under conditions of 37° C. and 5% carbon dioxide for 72 hours. After the 96-well plate in which the cells were cultured was acclimated to room temperature for 30 minutes, CellTiter-Glo® Luminescent Cell Assay Reagent (CTG, Promega) was dispensed at 50 μl per well. After stabilizing luminescence signals for 10 minutes, the luminescence intensity was measured with a microplate reader.
Based on the measured value, a […] value of each compound, which is the concentration at which cell growth is inhibited by 50%, was calculated with respect to 100% of the value obtained by subtracting the initial cell density value of a well not treated with a test material from the final cell density value thereof. The GI50 value of each compound was calculated using nonlinear regression of GraphPad Prism; log[inhibitor] vs. normalized response analysis.

T1 sequence (P00533 25-1210 T790M/L858R): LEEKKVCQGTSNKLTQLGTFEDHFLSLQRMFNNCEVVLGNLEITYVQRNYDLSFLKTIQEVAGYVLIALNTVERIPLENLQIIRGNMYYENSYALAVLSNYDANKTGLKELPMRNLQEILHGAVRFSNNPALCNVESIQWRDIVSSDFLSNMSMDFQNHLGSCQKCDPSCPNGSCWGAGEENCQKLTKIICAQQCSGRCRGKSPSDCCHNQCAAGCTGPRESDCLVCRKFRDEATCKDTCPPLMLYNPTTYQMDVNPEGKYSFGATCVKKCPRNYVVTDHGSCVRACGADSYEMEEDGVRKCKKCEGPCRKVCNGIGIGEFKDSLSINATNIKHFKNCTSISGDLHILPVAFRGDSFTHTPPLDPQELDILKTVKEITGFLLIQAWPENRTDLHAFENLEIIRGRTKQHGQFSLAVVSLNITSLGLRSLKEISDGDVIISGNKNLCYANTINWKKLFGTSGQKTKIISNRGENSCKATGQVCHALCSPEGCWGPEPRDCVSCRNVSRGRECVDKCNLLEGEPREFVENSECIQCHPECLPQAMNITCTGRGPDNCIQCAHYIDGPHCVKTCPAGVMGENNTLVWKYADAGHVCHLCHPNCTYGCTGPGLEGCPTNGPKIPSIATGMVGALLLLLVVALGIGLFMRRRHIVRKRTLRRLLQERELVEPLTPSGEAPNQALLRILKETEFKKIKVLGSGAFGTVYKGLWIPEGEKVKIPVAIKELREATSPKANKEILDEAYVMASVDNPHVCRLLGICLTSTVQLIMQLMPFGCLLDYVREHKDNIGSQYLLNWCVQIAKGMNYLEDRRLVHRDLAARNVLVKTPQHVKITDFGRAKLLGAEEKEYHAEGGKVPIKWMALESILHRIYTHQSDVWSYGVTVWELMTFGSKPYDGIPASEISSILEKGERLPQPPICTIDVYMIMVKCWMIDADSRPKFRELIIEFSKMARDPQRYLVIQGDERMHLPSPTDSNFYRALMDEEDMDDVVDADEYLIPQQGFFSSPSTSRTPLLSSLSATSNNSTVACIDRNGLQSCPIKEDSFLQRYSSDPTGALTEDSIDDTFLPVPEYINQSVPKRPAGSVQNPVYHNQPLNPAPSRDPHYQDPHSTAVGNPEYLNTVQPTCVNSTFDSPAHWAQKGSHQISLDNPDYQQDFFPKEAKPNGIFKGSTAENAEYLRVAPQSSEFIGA

CN1CC2(C1)CN(c1ccc(Nc3nc(Nc4ccccc4N(C)S(C)(=O)=O)c4cc[nH]c4n3)cc1F)C2 [Example 36, N-(2-((2-((3-fluoro-4-(6-methyl-2,6-diazaspiro[3.3]heptan-2-yl)phenyl)amino)-7H-pyrrolo[2,3-d]pyrimidine-4-yl)amino)phenyl)-N-methylmethanesulfonamide]
IC50 (EGFR T790M/L858R): 12 nM | GI50 [1]: 20 nM | IC50 (EGFR L858R/T790M/C797S): 13 nM | IC50 (EGFR WT): 2180 nM

CN1CCN(C2CCN(c3ccc(Nc4nc(Nc5ccccc5N(C)S(C)(=O)=O)c5cc[nH]c5n4)cc3F)CC2)CC1 [Example 13, N-(2-((2-((3-fluoro-4-(4-(4-methylpiperazin-1-yl)piperidin-1-yl)phenyl)amino)-7H-pyrrolo[2,3-d]pyrimidine-4-yl)amino)phenyl)-N-methylmethanesulfonamide]
GI50 [1]: 11 nM | GI50 [2]: 267 nM

CCN1CCN(C2CCN(c3ccc(Nc4nc(Nc5ccccc5NS(C)(=O)=O)c5cc[nH]c5n4)cc3F)CC2)CC1 [Example 53, N-(2-((2-((4-(4-(4-ethylpiperazin-1-yl)piperidin-1-yl)-3-fluorophenyl)amino)-7H-pyrrolo[2,3-d]pyrimidine-4-yl)amino)phenyl)methanesulfonamide]
GI50 [1]: 7 nM | GI50 [2]: 698 nM

CN1CCN(c2ccc(Nc3nc(Nc4ccccc4NS(C)(=O)=O)c4cc[nH]c4n3)cc2F)CC1 [Example 42, N-(2-((2-((3-fluoro-4-(4-methylpiperazin-1-yl)phenyl)amino)-7H-pyrrolo[2,3-d]pyrimidine-4-yl)amino)phenyl)methanesulfonamide]
GI50 [1]: 123 nM | GI50 [2]: 951 nM

CC(C)N1CCN(C2CCN(c3ccc(Nc4nc(Nc5ccccc5N(C)S(C)(=O)=O)c5cc[nH]c5n4)cc3F)CC2)CC1 [Example 15, N-(2-((2-((3-fluoro-4-(4-(4-isopropylpiperazin-1-yl)piperidin-1-yl)phenyl)amino)-7H-pyrrolo[2,3-d]pyrimidine-4-yl)amino)phenyl)-N-methylmethanesulfonamide]
GI50 [2]: 131 nM

CCN1CCN(C2CCN(c3ccc(Nc4nc(Nc5ccccc5N(C)S(=O)(=O)CC)c5cc[nH]c5n4)cc3F)CC2)CC1 [Example 54, N-(2-((2-((4-(4-(4-ethylpiperazin-1-yl)piperidin-1-yl)-3-fluorophenyl)amino)-7H-pyrrolo[2,3-d]pyrimidine-4-yl)amino)phenyl)-N-methylethanesulfonamide]
GI50 [2]: 530 nM

CCCN1CCN(C2CCN(c3ccc(Nc4nc(Nc5ccccc5N(C)S(C)(=O)=O)c5cc[nH]c5n4)cc3F)CC2)CC1 [Example 16, N-(2-((2-((3-fluoro-4-(4-(4-propylpiperazin-1-yl)piperidin-1-yl)phenyl)amino)-7H-pyrrolo[2,3-d]pyrimidine-4-yl)amino)phenyl)-N-methylmethanesulfonamide]
IC50 (EGFR T790M/L858R): 2.7 nM | IC50 (EGFR L858R/T790M/C797S): 4 nM | GI50 [2]: 160 nM | IC50 (EGFR WT): 1530 nM

CN1CCN(C2CCN(c3ccc(Nc4nc(Nc5ccccc5N(C)S(C)(=O)=O)c5ccn(C)c5n4)cc3F)CC2)CC1 [Example 65, N-(2-((2-((3-fluoro-4-(4-(4-methylpiperazin-1-yl)piperidin-1-yl)phenyl)amino)-7-methyl-7H-pyrrolo[2,3-d]pyrimidine-4-yl)amino)phenyl)-N-methylmethanesulfonamide]
GI50 [2]: 3380 nM

CCN1CCN(c2ccc(Nc3nc(Nc4ccccc4N(C)S(C)(=O)=O)c4cc[nH]c4n3)cc2F)CC1 [Example 8, N-(2-((2-((3-fluoro-4-(4-ethylpiperazin-1-yl)phenyl)amino)-7H-pyrrolo[2,3-d]pyrimidine-4-yl)amino)phenyl)-N-methylmethanesulfonamide]
GI50 [1]: 10 nM | GI50 [2]: 201 nM

CCN1CCN(C2CCN(c3ccc(Nc4nc(Nc5ccccc5N(C)S(C)(=O)=O)c5cc[nH]c5n4)cc3F)CC2)CC1 [Example 14, N-(2-((2-((3-fluoro-4-(4-(4-ethylpiperazin-1-yl)piperidin-1-yl)phenyl)amino)-7H-pyrrolo[2,3-d]pyrimidine-4-yl)amino)phenyl)-N-methylmethanesulfonamide]
IC50 (EGFR T790M/L858R): 2.9 nM | GI50 [1]: 15 nM | IC50 (EGFR L858R/T790M/C797S): 4 nM | GI50 [2]: 126 nM | IC50 (EGFR WT): 4490 nM

CCN1CCC2(CCN(c3ccc(Nc4nc(Nc5ccccc5N(C)S(=O)(=O)CC)c5cc[nH]c5n4)cc3F)CC2)C1 [Example 56, N-(2-((2-((4-(2-ethyl-2,8-diazaspiro[4.5]decan-8-yl)-3-fluorophenyl)amino)-7H-pyrrolo[2,3-d]pyrimidine-4-yl)amino)phenyl)-N-methylethanesulfonamide]
GI50 [2]: 564 nM

CCN1CCN(c2ccc(Nc3nc(Nc4ccccc4NS(C)(=O)=O)c4cc[nH]c4n3)cc2F)CC1 [Example 49, N-(2-((2-((4-(4-ethylpiperazin-1-yl)-3-fluorophenyl)amino)-7H-pyrrolo[2,3-d]pyrimidine-4-yl)amino)phenyl)methanesulfonamide]
GI50 [2]: 858 nM

CN(c1ccccc1Nc1nc(Nc2ccc(N3CCC(N4CCN(C5CC5)CC4)CC3)c(F)c2)nc2[nH]ccc12)S(C)(=O)=O [Example 17, N-(2-((2-((3-fluoro-4-(4-(4-cyclopropylpiperazin-1-yl)piperidin-1-yl)phenyl)amino)-7H-pyrrolo[2,3-d]pyrimidine-4-yl)amino)phenyl)-N-methylmethanesulfonamide]
GI50 [2]: 311 nM

CC(C)N1CCN(c2ccc(Nc3nc(Nc4ccccc4N(C)S(C)(=O)=O)c4cc[nH]c4n3)cc2F)CC1 [Example 9, N-(2-((2-((3-fluoro-4-(4-isopropylpiperazin-1-yl)phenyl)amino)-7H-pyrrolo[2,3-d]pyrimidine-4-yl)amino)phenyl)-N-methylmethanesulfonamide]
GI50 [2]: 420 nM

Source: patent US12319695B2, “Sulfonamide derivative with fused pyrimidine skeleton, having epidermal growth factor receptor mutation inhibitory effect” (HANMI PHARM. CO., LTD., priority 2018, dated 2025)
